Numbers after ± are expanded uncertainties.
Experiment: xn = mol fraction of the nth substance listed
Conditions: 101 kPa, Liquid, Vibrating tube method, x2 = 0.5

O=C(O)CC(=O)O [propanedioic acid] + C[N+](C)(C)CCO.[Cl-]
mass density (303.15 K): 1189.9 ± 0.6 kg/m3 | mass density (308.15 K): 1187.3 ± 0.6 kg/m3 | mass density (313.15 K): 1184.7 ± 0.6 kg/m3 | mass density (318.15 K): 1182.1 ± 0.6 kg/m3 | mass density (323.15 K): 1179.7 ± 0.6 kg/m3

Reference: the NIST ThermoML archive (doi:10.1016/j.jct.2013.08.029)
